Experimental data reported in patent US6984633B2, “Method to treat cardiofibrosis with a combination therapy of an angiotensin II antagonist and epoxymexrenone” (G.D Searle & Co., priority 1995, dated 2006).
Like-named read-outs stand apart in the source and are kept apart here.

Columns and labels:
pressor response to AII [1] = assay: Assay C: In vivo intragastric pressor assay response for AII antagonists; set-up: species or system rat; conditions: dose not given, intraduodenally
pressor response to AII [2] = assay: as above; set-up: species or system rat; conditions: dose not given, intragastrically
Protocol: Assay C: In Vivo Intragastric Pressor Assay Response for All Antagonists
Male Sprague-Dawley rats weighing 225-300 grams were anesthetized with methohexital (30 mg/kg, i.p.) and catheters were implanted into the femoral artery and vein. The catheters were tunneled subcutaneously to exit dorsally, posterior to the head and between the scapulae. The catheters were filled with heparin (1000 units/ml of saline). The rats were returned to their cage and allowed regular rate chow and water ad libitum. After full recovery from surgery (3-4 days), rats were placed in Lucite holders and the arterial line was connected to a pressure transducer. Arterial pressure was recorded on a Gould polygraph (mmHg). Angiotensin II was administered as a 30 ng/kg bolus via the venous catheter delivered in a 50 μl volume with a 0.1 ml saline flush. The pressor response in mm Hg was measured by the difference from pre-injection arterial pressure to the maximum pressure achieved. The AII injection was repeated every 10 minutes until three consecutive injections yielded responses within 4 mmHg of each other. These three responses were then averaged and represented the control response to AII. The test compound was suspended in 0.5% methylcellulose in water and was administered by gavage. The volume administered was 2 ml/kg body weight. The standard dose was 3 mg/kg. Angiotensin II bolus injections were given at 30, 45, 60, 75, 120, 150, and 180 minutes after gavage. The pressor response to AII was measured at each time point. The rats were then returned to their cage for future testing. A minimum of 3 days was allowed between tests. Percent inhibition was calculated for each time point following gavage by the following formula: [(Control Response—Response at time point)/Control Response]×100.

rabbit aortic rings = assay: Assay B: In vitro vascular smooth muscle response for AII, antagonist activity in aortic rings; format: cell-based; conditions: Oryctolagus cuniculus, two determinations separated by /, read-out: Assay B pA2 (converted)
Protocol: Assay B: In Vitro Vascular Smooth Muscle-Response for AII
The compounds of the invention were tested for antagonist activity in rabbit aortic rings. Male New Zealand white rabbits (2-2.5 kg) were sacrificed using an overdose of pentobarbital and exsanguinated via the carotid arteries. The thoracic aorta was removed, cleaned of adherent fat and connective tissue and then cut into 3-mm ring segments. The endothelium was removed from the rings by gently sliding a rolled-up piece of filter paper into the vessel lumen. The rings were then mounted in a water-jacketed tissue bath, maintained at 37° C., between moveable and fixed ends of a stainless steel wire with the moveable end attached to an FT03 Grass transducer coupled to a Model 7D Grass Polygraph for recording isometric force responses. The bath was filled with 20 ml of oxygenated (95% oxygen/5% carbon dioxide) Krebs solution of the following composition (mM); 130 NaCl, 15 NaHCO3, […], 1.2 NaH2PO4, 1.2 MgSO4, 2.5 CaCl2, and 11.4 glucose. The preparations were equilibrated for one hour before approximately one gram of passive tension was placed on the rings. Angiotensin II concentration-response curves were then recorded (3×10^−10 to 1×10^−5 M). Each concentration of AII was allowed to elicit its maximal contraction, and then AII was washed out repeatedly for 30 minutes before rechallenging with a higher concentration of AII. Aorta rings were exposed to the test antagonist at 10^−5 M for 5 minutes before challenging with AII. Adjacent segments of the same aorta ring were used for all concentration-response curves in the presence of absence of the test antagonist. The effectiveness of the test compound was expressed in terms of pA2 values and were calculated according to H. O. Schild [Br. J. Pharmacol. Chemother., 2, 189-206 (1947)]. The pA2 value is the concentration of the antagonist which increases the EC50 value for AII by a factor of two. Each test antagonist was evaluated in aorta rings from two rabbits.

[3] = target: angiotensin II AT1 receptor; assay: Assay A: Angiotensin II binding activity, 125I-AII displacement in rat uterine membrane preparation
Protocol: Assay A: Antiotensin II Binding Activity
Compounds of the invention were tested for ability to bind to the smooth muscle angiotensin II receptor using a rat uterine membrane preparation. […] The reaction was initiated by the addition of membrane protein and the mixture was incubated at 25° C. for 60 min. The incubation was terminated with ice-cold 50 mM Tris-HCl (pH 7.5) and the mixture was filtered to separate membrane-bound labelled peptide from the free ligand. The incubation tube and filter were washed with ice-cold buffer. Filters were assayed for radioactivity in a Micromedic gamma counter. Nonspecific binding was defined as binding in the presence of 10 μM of unlabelled AII. Specific binding was calculated as total binding minus nonspecific binding. […] Binding data were analyzed by a nonlinear least-squares curve fitting program.

myocardial fibrosis = conditions: animal models, cited from earlier work

## CCCCc1nn(CCCC)c(=O)n1Cc1ccc(-c2ccccc2C(=O)O)cc1 [Compound 78]
Pressor response to AII [1]
  Assay C Duration: 60 to 100 min

## CCCCc1nn(CCCc2ccccc2)c(=O)n1Cc1ccc(-c2ccccc2-c2nn[nH]n2)cc1 [Compound 81]
Pressor response to AII [2]
  Assay C Duration: 180 min

## CCCCc1nn(CC(=O)c2ccccc2)c(=O)n1Cc1ccc(-c2ccccc2-c2nn[nH]n2)cc1 [Compound 82]
Pressor response to AII [2]
  Assay C Duration: 180 min

## CCCCc1nn(CC(O)c2ccccc2)c(=O)n1Cc1ccc(-c2ccccc2-c2nn[nH]n2)cc1 (stereo not drawn) [Compound 83]
Pressor response to AII [2]
  Assay C Duration: >180 min

## CCCCc1nn(CC(=O)OC(C)(C)C)c(=O)n1Cc1ccc(-c2ccccc2-c2nn[nH]n2)cc1 [Compound 84]
Pressor response to AII [2]
  Assay C Duration: 30 min

## CCCCc1nn(CC(OCC(=O)O)c2ccccc2)c(=O)n1Cc1ccc(-c2ccccc2-c2nn[nH]n2)cc1 (stereo not drawn) [Compound 91]
Pressor response to AII [2]
  Assay C Duration: >180 min

## CCCCc1nn(CC(C)c2cc(OC)ccc2OC)c(=O)n1Cc1ccc(-c2ccccc2-c2nn[nH]n2)cc1 (stereo not drawn) [Compound 98]
Rabbit aortic rings
  Kb: 7.94 nM
[3]
  IC50: 22 nM

## CCCCc1nc2c(OC(C)=O)nnc(OC(C)=O)c2n1Cc1ccc(-c2ccccc2-c2nnn[nH]2)cc1 [Compound 125]
[3]
  IC50: 40 nM

## CCCCc1cn(CCc2ccccc2)c(=O)n1Cc1ccc(-c2ccccc2-c2nnn[nH]2)cc1 [Compound 133]
Pressor response to AII [2]
  Assay C Duration: 90 to 120 min

## CCCCc1nc(CCCC)n(Cc2ccc(-n3c(Cl)cc(Cl)c3-c3nnn[nH]3)cc2)n1 [Compound 143]
Pressor response to AII [1]
  Assay C Duration: 75 min

## CCCn1nc(C(F)F)nc1Cc1ccc(-c2ccccc2-c2nnn[nH]2)nc1 [Compound 162]
[3]
  IC50: 380 nM

## CCCCn1nc(C(F)F)nc1Cc1ccc(-c2ccccc2-c2nnn[nH]2)nc1 [Compound 163]
[3]
  IC50: 420 nM

## CC(=O)S[C@@H]1CC2=CC(=O)CC[C@]2(C)[C@H]2CC[C@@]3(C)[C@@H](CC[C@@]34CCC(=O)O4)[C@H]12 [spironolactone]
Myocardial fibrosis
  prevention of myocardial fibrosis: prevents myocardial fibrosis in animal models
Myocardial fibrosis; listed as Spironolactone
  prevention of myocardial fibrosis: prevent fibrosis in animal models irrespective of the development of left ventricular hypertrophy and the presence of hypertension
